`Cc1cc(O)c(C2CCCCC2)cc1Sc1cc(C2CCCCC2)c(O)cc1C` yielded a melting point of 128 to 130 °C. For `COC(=O)Cc1ccccc1OCc1cncc(OCc2nc(-c3ccccc3)oc2C)c1`, the melting point was in the range of 77 to 78 °C. Under `c1ccc(-c2nccn3cnnc23)cc1` stands 238 to 239 °C; under `N#Cc1cc(C(=O)c2cccs2)ccc1O`, 216 °C; under `CC(=O)Nc1nc2c(nc(F)n2COCCOC(C)=O)c(=O)[nH]1`, 196 to 198 °C. For `N#Cc1cc(-c2ccc(Cl)cc2)cnc1N`, the melting point fell in the range of 202 to 204 °C. Under `CS(=O)(=O)N1Cc2nc3c(N)nc4c(c3n2C(CCCNC(=O)N2CCOCC2)C1)CCCC4` (stereo not drawn) stands 149 to 160 °C; under `O=C(Nc1csc(Br)n1)C(Cl)(Cl)Cl`, 77 to 80 °C.

For `C=CCCc1ccc(NC(=O)OCc2ccccc2)c(O)n1`, the melting point was 179 to 180 °C.

On to `COc1nc(O)c(C(=O)O)nc1Cl`, for which the melting point lay within 170 to 173 °C. Under `CC1CC2C3CC(F)C4=CC(=O)C=CC4(C)C34OC4CC2(C)C1(O)C(=O)CO` (stereo not drawn) stands 241 to 242 °C; under `Cc1cn(S(C)(=O)=O)c2c1C(=O)CC(c1ccccc1)C2` (stereo not drawn), 80 to 83 °C; under `Cc1c(O)cc2c(c1Br)[C@H](O)[C@H](N1CCC(O)(c3ccc(F)cc3)CC1)CO2` (relative stereo), 196 °C.

`NC(=O)c1cc(OCCCCNCc2ccccc2)ccc1O` showed a melting point of 78 to 81 °C. Under `COc1ccc(C=Cc2cc(Cl)c(OC)c(OC)c2)cc1O` stands 105 to 106 °C; under `CC(=O)N1CCC2(CC1)CC(=O)c1c(ccc([N+](=O)[O-])c1O)O2`, 201 to 202 °C. The same measure for `O=C(OCc1cc(OCCCO)c(OCCCO)c(OCCCO)c1)c1ccccc1`: 54 to 55 °C; for `Fc1ccc2c(c1)nc(/C=C/C1CCCCC1)n2-c1ccccn1`: 109 to 110 °C. The same measure for `Cc1cnc2c(c1)C(O)C(Cc1ccc(C#N)cc1)CC2` (stereo not drawn): 174 to 175 °C; for `Clc1cccc(Nc2ncnc3[nH]nc(NCc4ccccc4)c23)c1`: 214 to 217 °C; for `O=Cc1cc(OCCCNC(=O)NC2CCCCC2)ccc1[N+](=O)[O-]`: 150 to 152 °C.

Consider `CNC(=O)NC(=S)N1N=C(c2ccc([N+](=O)[O-])cc2)c2cc3c(cc2CC1C)OCO3` (stereo not drawn), for which the melting point came out at 164 °C. The same measure for `CC1(C)C(=O)Nc2ccc([N+](=O)[O-])cc21`: 192 to 196 °C. In the case of `COC(=O)CN1CCN2C(Cc3cc(OC)c(OC)cc3C2c2ccccc2)C1` (stereo not drawn), the melting point was 110 to 113 °C.

In turn, `CC(C)(C)OC(=O)N[C@H]1CCN(C(=O)OCc2ccccc2)C1` yielded a melting point of 124 to 125 °C.

`COC(=O)c1cc(I)cn1CCF` registered a melting point of 49 to 50.5 °C. Under `Cc1ccc(S(=O)(=O)N2CCC[C@H]2C(=O)N2c3ccc(Cl)c(Cl)c3C[C@@H]2C)cc1` stands 170 to 173 °C; under `c1ccc(-c2ncnc3sc4c(c23)CCCC4)cc1`, 135 to 137 °C. The same measure for `Cc1c(-c2ccc(NC(=O)NC(C)(C)C)cc2)nc2n1CCc1ccccc1C2OC1CCN(C)CC1` (stereo not drawn): 173 °C; for `CC1CCN=C2N1c1ccc(Br)cc1C21OCCCO1` (stereo not drawn): 69 to 72 °C; for `ClCc1coc(Cc2ccccc2)n1`: 31 to 32 °C. The same measure for `CCCCc1nc(-c2ccco2)c2ncn(Cc3ccc(OC)cc3)c2n1`: 103 °C; for `O=c1cnc2cc3[nH]c(-c4ccncc4)nc3cc2[nH]1`: > 320 °C. `CCOc1ccc(S(=O)(=O)N(CC(=O)NN=C2C(=O)Nc3ccc([N+](=O)[O-])cc32)c2ccccc2)cc1` registered a melting point of 252 to 253 °C.

As to `COc1ccc(-c2cnc3cc4cn[nH]c4cc3n2)cc1F`, the melting point was in the range of 175 to 179 °C. `O=C(N[C@H]1CC[C@H](CCN2CCC(c3cccc4c3CCO4)CC2)CC1)c1ccc(N2CCCCC2)cc1`: the melting point was found to be 248 °C. Under `CN(c1c(Cl)cc(Cl)cc1Cl)n1cc(C#N)c(=O)n(C)c1=O` stands 175 to 178 °C; under `O=S(=O)(c1ccccc1)C(F)(F)C(O)c1ccc(Cl)cc1` (stereo not drawn), 100 to 102 °C; under `Nc1sc2c(c1C(=O)c1ccc3ccccc3c1)CCN(Cc1ccc(Cl)cc1)C2`, 105 to 108 °C. The same measure for `Cc1nnsc1C(=O)Nc1ccc(-n2nc(C3CC3)c(Cl)c2C2CC2)c(F)c1`: 153 to 156 °C.

Regarding `COC(=O)N[C@H](C(=O)N[C@@H](Cc1ccccc1)[C@@H](O)CN(Cc1ccc(-c2nccs2)cc1)NC(=O)OC(C)(C)C)C(C)C`, the melting point was in the range of 178 to 179 °C. Under `CC(C)=CC(C#N)NC(=O)c1cn(C)nc1C` (stereo not drawn) stands 110 to 112 °C; under `Cc1nc(-c2ccc(C(F)(F)F)cc2)sc1CCOc1ccc(CCC(=O)O)cc1`, 128 to 130 °C; under `CCCCOc1c(CNC(=O)OC(C)(C)C)n(CC(C)C)c(=O)c2ccc(NC(=O)OCC3c4ccccc4-c4ccccc43)cc12`, 137 to 138 °C. Under `COc1cc(Nc2nccc(Nc3ccc(CCO)cc3)n2)cc(OC)c1OC` stands 172 °C; under `CCc1cn(C(CC)CC)c(=O)c(N2CCc3cc(Cl)cc(Cl)c32)n1`, 136 to 137 °C.

`O=C(O)C1CSC(c2ccccc2OCCCCO[N+](=O)[O-])N1` (stereo not drawn) came in with a melting point of 108 to 110 °C. The same measure for `Cc1ccc(NC(=O)/C=C/c2ccccc2C(F)(F)F)cc1NC(=N)c1ccccc1`: 112 to 116 °C; for `CS(=O)(=O)c1ccc(-c2cnn(CC(O)c3ccccc3)c(=O)c2-c2ccc(F)cc2)cc1` (stereo not drawn): 205 to 207 °C.

Take `COC(=O)CCn1nnnc1CC[C@H](NC(=O)OCc1ccccc1)C(=O)OC`: the melting point lay within 80 to 81 °C. In turn, `CCCn1cc(C2(c3cccc(-c4cccnc4F)c3)N=C(N)N(C)C2=O)cc1C(=O)CC` (stereo not drawn) showed a melting point of 118 °C. The same measure for `Cc1c(Br)sc2cc(C(=O)Cn3ccnc3)ccc12`: 184 to 186 °C. Under `CC(N)c1ccc2c(c1)C(c1ccccc1F)=NC(C)(C)C(=O)N2C` (stereo not drawn) stands 50 to 51 °C; under `OC1(c2cccc(Cl)c2)C2=NCCCN2c2ccccc21` (stereo not drawn), 186 to 187 °C; under `CC12CCC3C(CCC4CC(F)CCC43C)C1CCC2O` (stereo not drawn), 150 to 151 °C.

For the compound `COC1(c2cc(F)cc(OCc3ccc4c(c3)C(=O)N(C)S4(=O)=O)c2)CCOCC1`, the melting point was 155 to 156 °C. `O=c1c2c(c3cccnc3n1-c1ccccc1)SCC2` came in with a melting point of 277 to 279 °C.

`COc1cc(OC)nc(C(=O)c2nccc(-c3ccccc3)c2C(=O)OCc2ccccc2)n1` returned a melting point of 124 to 126 °C.

In turn, `COc1ccc(C2Cc3cc(C(F)(F)F)ccc3NC(=O)C2CSC)cc1` (stereo not drawn) registered a melting point of 224 to 226 °C. In turn, `Cc1nc2c(-c3cccc(N4CCN(C)CC4)c3)cnn2c(N)c1-c1cccc(Br)c1` showed a melting point of 107 to 113 °C. Under `Clc1ccc(-c2nc(CCCCCCc3nnn[nH]3)oc2-c2ccc(Cl)cc2)cc1` stands 148 °C. In turn, `Cc1noc(NC(=O)C(c2ccccc2)c2ccccc2)n1` came in with a melting point of 215 °C. In turn, `Fc1cnc(Nc2nc3c(s2)CCN(CCCN2CCOCC2)c2n[nH]cc2-3)nc1` gave a melting point of 251 to 254 °C. Under `COC(=O)c1ccc(-c2nc(NCc3ccc4c(c3)OCO4)c3c4c(sc3n2)CCCC4)cc1` stands 198 °C; under `CC1(C)CCC(C)(C)c2cc(-c3cc(-c4ccc(C(=O)O)cc4)ccc3-c3ccccc3O)ccc21`, 161 to 163 °C; under `CC(C)(C)OC(=O)N1CCC(n2cc(-c3ccc(Oc4ccccc4)cc3)c3c(N)ncnc32)CC1`, 168 to 170 °C. Under `COc1ccc(C(=O)CCCCCl)cc1S(=O)(=O)NC(C)C` stands 122 to 124 °C. The compound `CN(C)C(=O)c1cccnc1S(=O)(=O)Cl` registered a melting point of 114 to 117 °C.

`Cc1nc2ccccn2c1C1=NNC(=O)CO1` had a melting point of 278 to 280 °C. Under `COc1ccnc(N2CCN(C(=O)c3cc4ccccc4[nH]3)CC2)n1` stands 202 to 203 °C; under `O=C(O)c1coc(Cl)c1`, 124 to 125 °C.

Consider `CCOC(=O)C1=C(C)C2=C(CC1)SCCC2=O`, for which the melting point was in the range of 99 to 100 °C. Under `CC(NC(Nc1cc(Cl)cc(Cl)c1)=C(C#N)S(=O)(=O)c1ccc(Cl)cc1)C(C)(C)C` (stereo not drawn) stands 163 to 169 °C. The same measure for `Cn1c(COc2ccc(CC3SC(=O)NC3=O)cc2)nc2ccc(Oc3ccc(NC(=O)c4cccnc4)cc3)cc21` (stereo not drawn): 213 to 215 °C; for `C=Cc1ncc2c(c1O)COC2C` (stereo not drawn): 237 to 238 °C. Under `CCCCc1nc2c(N)nc3cccnc3c2n1CCNC(=O)OC(C)(C)C` stands 118 to 120 °C; under `O=C(O)c1cc(S(=O)CC(=O)c2ccccc2)cc(C(F)(F)F)c1` (stereo not drawn), 148 to 151 °C.

The compound `O=C(C=Cc1ccccc1[N+](=O)[O-])CC(=O)NC1CC1` yielded a melting point of 133 to 134 °C. Under `NCCOCC(P(=O)(O)O)P(=O)(O)O` stands > 300 °C; under `O=C(Cc1ccc2[nH]cc(CCN3C(=O)c4ccccc4C3=O)c2c1)NC1CCCCC1`, 175 to 176 °C; under `O=c1[nH]c(=O)n(Cc2cccc(OCc3noc(-c4ccc(F)cc4)n3)c2)o1`, 147 to 148 °C. Under `NCC1CC(n2cc(-c3cccc(F)c3)c3c(N)ncnc32)C1` (stereo not drawn) stands 101 to 102 °C.

As to `CCCCOc1ccc(NC(=O)c2cnc(C(=O)O)c(OC)c2)cc1`, the melting point lay in the range of 128 to 130 °C. Under `COc1cc(OC)nc(NC(=O)NS(=O)(=O)c2c3ccccc3nn2C)n1` stands 199 to 202 °C; under `Nc1cc(=O)n(-c2c(Cl)cc(C(F)(F)F)cc2Cl)[nH]1`, 206 to 207 °C. The same measure for `CNC(=O)N1CC(Oc2ccc(Br)cc2)C1`: 135 to 137 °C; for `CSC1C(=O)Nc2ccc(C3=NNC(=O)SC3C)cc21` (stereo not drawn): 159 °C; for `Nc1ccc2ccc(Oc3ccccc3Cl)nc2n1`: 166 °C.

What is called melting point is the temperature, or range, at which the solid turns liquid.

The values above are taken from a melting point compilation (Tetko et al.; mined from patent text by program, amines drawn as free bases though some values may be those of a salt).
